Reference: patent publication US9585840B1, “Redox active cerium oxide nanoparticles and associated methods” (University of Central Florida Research Foundation, Inc., priority 2009, dated 2017)

What was measured:
[1] = test system: HIF-1; assay: HIF-1 protein expression, western blot, tumor cells; assay type: cell-based, human; settings: SCL-1; 100 μM cobalt chloride; 4 h
[2] = test system: HIF-1; assay: HIF-1 protein expression, western blot, fibroblasts; assay type: cell-based, human; settings: HDF; 100 μM cobalt chloride; 4 h
[3] = test system: αSMA; assay: TGFβ1-mediated αSMA protein expression in human dermal fibroblasts, western blot; assay type: cell-based; settings: HDF; for TGFβ1-triggered upregulation of αSMA protein levels: NAC 5.0 mM 4 h or Na2SeO3 0.5 μM 24 h pretreatment, rTGFβ1 5 ng/ml, 48 h after growth factor
Method: Human dermal fibroblasts (HDF) were established by outgrowth from foreskin biopsies of healthy human donors with an age of 3-6 years. Cells were used in passages 2-12, corresponding to cumulative population doubling levels of 3-27 [15]. Dermal fibroblasts and the squamous carcinoma cell line SCL-1, originally derived from the face of a person (generously provided by Prof. Dr Norbert Fusenig, DKFZ Heidelberg, Germany), were cultured as described. Myofibroblasts (MF) were generated by treatment of HDFs with different concentrations of recombinant TGFβ1 (5 ng/ml) for 48 h in HDF conditioned medium (CMHDF).
SDS-PAGE was performed according to the standard protocols published elsewhere with minor modifications. Briefly, cells were lysed after incubation with rTGFβ1 in 1% SDS with 1:1000 protease inhibitor cocktail (Sigma; Taufkirchen, Germany). After sonication, the protein concentration was determined by using a modified Lowry method (Bio-Rad DC). 2×SDS-PAGE sample buffer (1.5 M Tris-HCl pH 6.8, 6 ml 20% SDS, 30 ml glycerol, 15 ml β-mercaptoethanol and 1.8 mg bromophenol blue was added, and after heating, the samples (10 μg total protein/lane) were applied to 10% (w/v) SDS-polyacrylamide gels. After electroblotting, immunodetection was carried out (1:1000 dilution of primary antibodies (mouse monoclonal anti-SMA and tubulin), 1:20000 dilution of anti-mouse antibody conjugated to HRP). Antigen-antibody complexes were visualized by an enhanced chemiluminescence system. Alpha-tubulin was used as internal control for equal loading.

[4] = test system: αSMA mRNA; assay: αSMA mRNA, quantitative real-time RT-PCR in human dermal fibroblasts; assay type: cell-based; settings: HDF; 24 h after treatment; normalised to HPRT1
Method: Total RNA was isolated and transcribed into cDNA as described. Expression of mRNA was analyzed by real-time RT-PCR using a LightCycler system (Roche; Mannheim, Germany) as described. Real-time RT-PCR was performed with 40 ng cDNA in glass capillaries containing LightCycler FastStart DNA Master SYBR Green I Reaction Mix (Roche), 2 mM MgCl2 and 1 μM of primers. Quantitation of the PCR amplicons was performed using the LightCycler Software. Hypoxanthine phosphoribosyltransferase (HPRT1) was used as internal normalization control.

[5] = test system: SCL-1 cells; assay: Oxidized (carbonylated) proteins, Oxyblot, tumor cells; assay type: cell-based, human; settings: 250 μM H2O2 for 1 h
Method: Dermal fibroblasts or tumor cells were grown to subconfluence on tissue culture dishes. After removal of serum-containing medium, HDF were cultured in CM^HDF and either mock-treated or pretreated for 40 h with 150 μM CeO2 nanoparticles prior to addition of 10 ng rTGFβ1/ml for additional 8 h. Tumor cells were mock-treated or treated with 150 μM CNP for 16 h. As positive control, the cells were treated with 250 μM H2O2 for 1 h. Thereafter, cells were lysed and carbonyl groups of oxidized proteins were detected with the OxyBlot™ Protein Oxidation Detection Kit, following the manufacturer's protocol. Briefly, the protein concentration was determined by using a modified Lowry method (Bio-Rad DC). The protein amounts of the samples were aligned. 5 μg of this cell lysate was incubated with 2,4-dinitrophenyl (DNP) hydrazine to form the DNP hydrazone derivatives. Labeled proteins were separated by SDS-PAGE and immunostained using rabbit anti-DNP antiserum (1:500) and goat anti-rabbit IgG conjugated to horseradish peroxidase (1:2000). Blots were developed by enhanced chemiluminescence.

[6] = test system: SCL-1 cells; assay: Intracellular ROS, DCF fluorescence, tumor cells; assay type: cell-based, human; settings: 250 μM H2O2, technical control; data not shown
Method: Generation of ROS was determined using 2′,7′-Dichlorodihydrofluorescein diacetate (H2DCF-DA), a dye that diffuses across the lipid membranes into cells and is subsequently oxidized by intracellular ROS forming the highly fluorescent DCF. Subconfluent HDF and SCL-1 tumor cells were exposed to 50 μM or 150 μM CNP in serum-free DMEM in 24-well plates. Untreated subconfluent SCL-1 cells were used as negative controls. Medium was substituted after 24 h by 100 μM H2DCF-DA containing Hanks Balanced Salt Solution (HESS). DCF fluorescence was detected at an excitation wavelength of 485 nm and emission wavelength of 520 nm in 15 minutes intervals in a FLUOstar OPTIMA plate reader (BMG Labtech, Offenburg, Germany). Mean fluorescence intensities and standard error of mean were determined for each reading point by using the statistical software Prism 3.0 (GraphPad, San Diego, Calif., USA).

[7] = mouse, in vivo, iv, 0.5 mg/kg
Method: Eight-week-old, CD-1 mice were divided into two groups. Controls were given weekly doses of 100 μl sterile PBS only by intravenous (IV) administration. The nanoceria group received five doses (one dose a week) of 0.5 mg/kg of nanoceria suspended in 100 μl of sterile saline (IV). Both groups were sacrified on the sixth week. Skin tissue from the back of each animal was excised and hair removed. The tissue was patted dry, weighed and placed in 70% nitric acid overnight to start the digestion process. Samples were then microwave digested. The temperature was ramped to 200° C. over 20 min and held there for another 20 min. Samples were then boiled down to less than 1 ml each and reconstituted in water to an exact volume of 10 ml. Cerium levels were assessed using inductively coupled plasma mass spectroscopy (ICP-MS).

[8] = test system: human dermal fibroblasts

For `[Cl][Co][Cl]` [cobalt chloride], the “HIF-1 protein levels compared to mock-treated cells” value [1] was “significant increase” and the HIF-1 protein expression [2] was “not affected”.

In the case of `CC(=O)N[C@@H](CS)C(=O)O` [NAC, N-acetyl-L-cysteine], the “TGFβ1-triggered upregulation of αSMA protein levels” value [3] is reported as “completely prevented”.

For `O=[Se]([O-])[O-].[Na+].[Na+]` [selenite, sodium selenite], the “TGFβ1-triggered upregulation of αSMA protein levels” value [3] was “significantly lowered”.

In the case of “TGFβ1: Recombinant human TGFβ1 from R&D Systems, stimulus for myofibroblast formation”, the “increase in αSMA steady-state mRNA levels compared to mock-treated controls” value [4] is reported as 10 fold and the “αSMA protein amount compared with mock-treated control cells” value ([3]; rTGFβ1 5 ng/ml for 8 to 48 h, starting at 16 h post treatment) is reported as “significant time-dependent increase”.

In the case of `OO` [H2O2, Hydrogen peroxide], the “oxidized proteins, positive control” value [5] is reported as “increase in oxidized proteins” and the “intracellular ROS level” value [6] is reported as “further increased”.

With cerium oxide nanoparticles [CNP] the “increase in the amount of CeO2 per gram skin tissue vs mock-treated mice” value [7] was “up to 8 fold” and the cell morphology [8] was “No change in morphology”.
